Measurements published in patent publication US9175003B2, “Substituted azoanthracene derivatives and intermediates for preparation thereof” (TransTech Pharma, LLC, priority 2009, dated 2015).
pEC50: −log10 of the molar value.

Each compound was assayed against human GLP-1 receptor (Homo sapiens (Human), UniProt P43220). Conditions: read-out: Mean EC50; cAMP, HTRF detection, 30 min at 37° C., HEK-293 cells expressing cloned human GLP-1 receptor.
human GLP-1 receptor, sequence (P43220 24-463): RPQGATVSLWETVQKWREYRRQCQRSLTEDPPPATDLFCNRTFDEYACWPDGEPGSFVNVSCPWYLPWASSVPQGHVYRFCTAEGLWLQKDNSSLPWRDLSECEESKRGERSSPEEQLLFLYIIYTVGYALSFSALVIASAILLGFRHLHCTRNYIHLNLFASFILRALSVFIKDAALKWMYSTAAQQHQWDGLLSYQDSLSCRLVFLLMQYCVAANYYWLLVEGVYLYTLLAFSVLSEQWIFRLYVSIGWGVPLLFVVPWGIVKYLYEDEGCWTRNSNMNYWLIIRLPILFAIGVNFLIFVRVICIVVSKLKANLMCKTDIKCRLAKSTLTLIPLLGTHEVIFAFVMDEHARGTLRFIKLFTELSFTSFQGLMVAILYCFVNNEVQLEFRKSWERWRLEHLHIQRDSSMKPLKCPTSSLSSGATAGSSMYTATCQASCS

Row | Compound | pEC50
1 | Cc1nccc(-c2ccc(C[C@H](NC(=O)[C@@H]3Cc4cc5c(cc4CN3C(=O)N3CCCCC3)O[C@@H](c3ccc(OCc4ccc(Cl)c(Cl)c4)cc3)CO5)C(=O)O)cc2)c1C [Example 312, (S)-2-{[(3S,8S)-3-[4-(3,4-Dichloro-benzyloxy)-phenyl]-7-(piperidine-1-carbonyl)-2,3,6,7,8,9-hexahydro-[1,4]dioxino[2,3-g]isoquinoline-8-carbonyl]-amino}-3-[4-(2,3-dimethyl-pyridin-4-yl)-phenyl]-propionic acid] | 7.49
2 | CC[C@@H](c1ccccc1)N1Cc2cc3c(cc2C[C@H]1C(=O)N[C@@H](Cc1ccc(-c2ccnnc2)cc1)C(=O)O)OC[C@H](c1ccc(OCc2ccc(Cl)c(Cl)c2)cc1)O3 [Example 186, (S)-2-{[(3S,8S)-3-[4-(3,4-Dichloro-benzyloxy)-phenyl]-7-((S)-1-phenyl-propyl)-2,3,6,7,8,9-hexahydro-[1,4]dioxino[2,3-g]isoquinoline-8-carbonyl]-amino}-3-(4-pyridazin-4-yl-phenyl)-propionic acid] | 6.59
3 | CC(=O)Nc1ccc(S(=O)(=O)N2Cc3cc4c(cc3C[C@H]2C(=O)N[C@@H](Cc2ccc(-c3ccc(C#N)cc3)cc2)C(=O)O)OCC(c2ccc(OCc3ccc(Cl)c(Cl)c3)cc2)O4)c(C)c1 (stereo in doubt) [Example 111, (S)-2-({(S)-7-(4-Acetylamino-2-methyl-benzenesulfonyl)-3-[4-(3,4-dichloro-benzyloxy)-phenyl]-2,3,6,7,8,9-hexahydro-[1,4]dioxino[2,3-g]isoquinoline-8-carbonyl}-amino)-3-(4′-cyano-biphenyl-4-yl)-propionic acid] | 7.36
4 | Cc1nccc(-c2ccc(C[C@H](NC(=O)[C@@H]3Cc4cc5c(cc4CN3Cc3ncccc3F)O[C@@H](c3ccc(OCc4ccc(Cl)c(Cl)c4)cc3)CO5)C(=O)O)cc2)c1C [Example 228, (S)-2-{[(3S,8S)-3-[4-(3,4-Dichloro-benzyloxy)-phenyl]-7-(3-fluoro-pyridin-2-ylmethyl)-2,3,6,7,8,9-hexahydro-[1,4]dioxino[2,3-g]isoquinoline-8-carbonyl]-amino}-3-[4-(2,3-dimethyl-pyridin-4-yl)-phenyl]-propionic acid] | 7.66
5 | Cc1nccc(-c2ccc(C[C@H](NC(=O)[C@@H]3Cc4cc5c(cc4CN3C(=O)C3CNC(=O)N3)O[C@@H](c3ccc(OCc4ccc(Cl)c(Cl)c4)cc3)CO5)C(=O)O)cc2)c1C (stereo partly drawn) [Example 333, (S)-2-{[(3S,8S)-3-[4-(3,4-Dichloro-benzyloxy)-phenyl]-7-(2-oxo-imidazolidine-4-carbonyl)-2,3,6,7,8,9-hexahydro-[1,4]dioxino[2,3-g]isoquinoline-8-carbonyl]-amino}-3-[4-(2,3-dimethyl-pyridin-4-yl)-phenyl]-propionic acid] | 6.71
6 | Cc1nccc(-c2ccc(C[C@H](NC(=O)[C@@H]3Cc4cc5c(cc4CN3C(=O)NC(C)C)O[C@@H](c3ccc(OCc4ccc(Cl)c(Cl)c4)cc3)CO5)C(=O)O)cc2)c1C [Example 250, (S)-2-({(3S,8S)-3-[4-(3,4-Dichloro-benzyloxy)-phenyl]-7-isopropylcarbamoyl-2,3,6,7,8,9-hexahydro-[1,4]dioxino[2,3-g]isoquinoline-8-carbonyl}-amino)-3-[4-(2,3-dimethyl-pyridin-4-yl)-phenyl]-propionic acid] | 6.77
7 | CC[C@@H](c1ccccc1)N1Cc2cc3c(cc2C[C@H]1C(=O)N[C@@H](Cc1ccc(Oc2cccnc2)cc1)C(=O)O)OC[C@H](c1ccc(OCc2ccc(Cl)c(Cl)c2)cc1)O3 [Example 185, (S)-2-{[(3S,8S)-3-[4-(3,4-Dichloro-benzyloxy)-phenyl]-7-((S)-1-phenyl-propyl)-2,3,6,7,8,9-hexahydro-[1,4]dioxino[2,3-g]isoquinoline-8-carbonyl]-amino}-3-[4-(pyridin-3-yloxy)-phenyl]-propionic acid] | 6.92
8 | Cc1ccc(C(=O)N2Cc3cc4c(cc3C[C@H]2C(=O)N[C@@H](Cc2ccc(-c3ccnc(C)c3C)cc2)C(=O)O)OC[C@H](c2ccc(OCc3ccc(Cl)c(Cl)c3)cc2)O4)cc1 [Example 158, (S)-2-{[(3S,8S)-3-[4-(3,4-Dichloro-benzyloxy)-phenyl]-7-(4-methyl-benzoyl)-2,3,6,7,8,9-hexahydro-[1,4]dioxino[2,3-g]isoquinoline-8-carbonyl]-amino}-3-[4-(2,3-dimethyl-pyridin-4-yl)-phenyl]-propionic acid] | 6.84
9 | CC[C@@H](c1ccccc1)N1Cc2cc3c(cc2C[C@H]1C(=O)N[C@@H](Cc1ccc(-c2cc(C)nn2C)cc1)C(=O)O)OC[C@H](c1ccc(OCc2ccc(Cl)c(Cl)c2)cc1)O3 [Example 180, (S)-2-{[(3S,8S)-3-[4-(3,4-Dichloro-benzyloxy)-phenyl]-7-((S)-1-phenyl-propyl)-2,3,6,7,8,9-hexahydro-[1,4]dioxino[2,3-g]isoquinoline-8-carbonyl]-amino}-3-[4-(2,5-dimethyl-2H-pyrazol-3-yl)-phenyl]-propionic acid] | 8.52
10 | Cc1nc(C(=O)N2Cc3cc4c(cc3C[C@H]2C(=O)N[C@@H](Cc2ccc(-c3ccnc(C)c3C)cc2)C(=O)O)OC[C@H](c2ccc(OCC3CCCCC3)cc2)O4)c(C)o1 [Example 405, (S)-2-{[(3S,8S)-3-(4-Cyclohexylmethoxy-phenyl)-7-(2,5-dimethyl-oxazole-4-carbonyl)-2,3,6,7,8,9-hexahydro-[1,4]dioxino[2,3-g]isoquinoline-8-carbonyl]-amino}-3-[4-(2,3-dimethyl-pyridin-4-yl)-phenyl]-propionic acid] | 6.67
11 | Cc1ncoc1C(=O)N1Cc2cc3c(cc2C[C@H]1C(=O)N[C@@H](Cc1ccc(-c2ccnc(C)c2C)cc1)C(=O)O)OC[C@H](c1ccc(OCc2ccc(Cl)c(Cl)c2)cc1)O3 [Example 238, (S)-2-{[(3S,8S)-3-[4-(3,4-Dichloro-benzyloxy)-phenyl]-7-(4-methyl-oxazole-5-carbonyl)-2,3,6,7,8,9-hexahydro-[1,4]dioxino[2,3-g]isoquinoline-8-carbonyl]-amino}-3-[4-(2,3-dimethyl-pyridin-4-yl)-phenyl]-propionic acid] | 6.84
12 | CC[C@@H](c1ccccc1)N1Cc2cc3c(cc2C[C@H]1C(=O)N[C@@H](Cc1ccc(Oc2ccnc(C)c2C)cc1)C(=O)O)OC[C@H](c1ccc(OCc2ccc(Cl)c(Cl)c2)cc1)O3 [Example 189, (S)-2-{[(3S,8S)-3-[4-(3,4-Dichloro-benzyloxy)-phenyl]-7-((S)-1-phenyl-propyl)-2,3,6,7,8,9-hexahydro-[1,4]dioxino[2,3-g]isoquinoline-8-carbonyl]-amino}-3-[4-(2,3-dimethyl-pyridin-4-yloxy)-phenyl]-propionic acid] | 7.51
13 | CCNc1nc(C)c(S(=O)(=O)N2Cc3cc4c(cc3C[C@H]2C(=O)N[C@@H](Cc2ccc(-c3ccc(C#N)cc3)cc2)C(=O)O)OC[C@H](c2ccc(OCc3ccc(Cl)c(Cl)c3)cc2)O4)s1 [Example 86, (S)-3-(4′-Cyano-biphenyl-4-yl)-2-{[(3S,8S)-3-[4-(3,4-dichloro-benzyloxy)-phenyl]-7-(2-ethylamino-4-methyl-thiazole-5-sulfonyl)-2,3,6,7,8,9-hexahydro-[1,4]dioxino[2,3-g]isoquinoline-8-carbonyl]-amino}-propionic acid] | 6.60
14 | Cc1nc(C(=O)N2Cc3cc4c(cc3C[C@H]2C(=O)N[C@@H](Cc2ccc(-c3ccnc(C)c3C)cc2)C(=O)O)OC[C@H](c2ccc(O[C@H]3CC[C@H](C)CC3)cc2)O4)c(C)o1 [Example 382, (S)-2-({(3S,8S)-7-(2,5-Dimethyl-oxazole-4-carbonyl)-3-[4-(trans-4-methyl-cyclohexyloxy)-phenyl]-2,3,6,7,8,9-hexahydro-[1,4]dioxino[2,3-g]isoquinoline-8-carbonyl}-amino)-3-[4-(2,3-dimethyl-pyridin-4-yl)-phenyl]-propionic acid] | 6.97
15 | Cc1nccc(-c2ccc(C[C@H](NC(=O)[C@@H]3Cc4cc5c(cc4CN3C(=O)N[C@H](C)c3ccc(F)cc3)O[C@@H](c3ccc(OCc4ccc(Cl)c(Cl)c4)cc3)CO5)C(=O)O)cc2)c1C [Example 247, (S)-2-({(3S,8S)-3-[4-(3,4-Dichloro-benzyloxy)-phenyl]-7-[(R)-1-(4-fluoro-phenyl)-ethylcarbamoyl]-2,3,6,7,8,9-hexahydro-[1,4]dioxino[2,3-g]isoquinoline-8-carbonyl}-amino)-3-[4-(2,3-dimethyl-pyridin-4-yl)-phenyl]-propionic acid] | 6.76
16 | Cc1nccc(-c2ccc(C[C@H](NC(=O)[C@@H]3Cc4cc5c(cc4CN3C(=O)OCC(C)C)O[C@@H](c3ccc(OCc4ccc(Cl)c(Cl)c4)cc3)CO5)C(=O)O)cc2)c1C [Example 295, (3S,8S)-8-{(S)-1-Carboxy-2-[4-(2,3-dimethyl-pyridin-4-yl)-phenyl]-ethylcarbamoyl}-3-[4-(3,4-dichloro-benzyloxy)-phenyl]-2,3,8,9-tetrahydro-6H-[1,4]dioxino[2,3-g]isoquinoline-7-carboxylic acid isobutyl ester] | 6.86
17 | Cc1nccc(Oc2ccc(C[C@H](NC(=O)[C@@H]3Cc4cc5c(cc4CN3C(=O)NC3(C)CCC3)O[C@@H](c3ccc(OCc4ccc(Cl)c(Cl)c4)cc3)CO5)C(=O)O)cc2)c1C [Example 351, (S)-2-{[(3S,8S)-3-[4-(3,4-Dichloro-benzyloxy)-phenyl]-7-(1-methyl-cyclobutylcarbamoyl)-2,3,6,7,8,9-hexahydro-[1,4]dioxino[2,3-g]isoquinoline-8-carbonyl]-amino}-3-[4-(2,3-dimethyl-pyridin-4-yloxy)-phenyl]-propionic acid] | 6.96
18 | CCCCNc1nc(C)c(S(=O)(=O)N2Cc3cc4c(cc3C[C@H]2C(=O)N[C@@H](Cc2ccc(-c3ccc(C#N)cc3)cc2)C(=O)O)OCC(c2ccc(OCc3ccc(Cl)c(Cl)c3)cc2)O4)s1 (stereo in doubt) [Example 109, (S)-2-({(S)-7-(2-Butylamino-4-methyl-thiazole-5-sulfonyl)-3-[4-(3,4-dichloro-benzyloxy)-phenyl]-2,3,6,7,8,9-hexahydro-[1,4]dioxino[2,3-g]isoquinoline-8-carbonyl}-amino)-3-(4′-cyano-biphenyl-4-yl)-propionic acid] | 6.53
